Source: patent US12459951B2, “Compounds that interact with RAS superfamily proteins for treatment of cancers, inflammatory diseases, rasopathies, and fibrotic disease” (SHY Therapeutics, LLC, priority 2022, dated 2025)
Where a name gives a salt, the structure may show the parent alone.

Legend:
MAPK p38 phosphorylation = assay: MAPK p38 Activation Assay (western blot), Panc-1; assay type: cell-based, human; conditions: at 10 μM, Panc-1 pancreatic cancer cell line; starred symbols = activation
Summary of the method: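 Panc-1 cells (KRas G12D) were treated with compound for 6 h at 37 °C, at 10 μM or as serial dilutions for IC50, with 0.3% DMSO. Method 1 used overnight serum-starved cells (0.5% FBS) stimulated with 1.5 ng/ml EGF for 15 min; Method 2 used unstimulated cells in 10% FBS. Phospho-p38 (Thr180/Tyr182) was detected by western blot.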

[1] = system: Smad2/Smad3 phosphorylation; assay: Phospho-Smad2/3 Inhibition Assay (western blot), Panc-1; assay type: cell-based, human; conditions: at 10 μM, Panc-1 pancreatic cancer cell line; starred symbols = activation
Summary of the method: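 Panc-1 cells (KRas G12D), starved overnight in 0.5% FBS, treated 3 h at 37° C with compound at 10 μM final (0.3% DMSO) or serial dilutions for IC50, then stimulated with 10 ng/ml TGF-b1 for 1 h. Phospho-Smad2 (Ser465/467) and phospho-Smad3 (Ser423/425) detected by western blot.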

Row | SMILES | % inh of MAPK p38 in Panc-1 (MAPK p38 phosphorylation) | % inh of Smad2/3 phosphorylation in Panc-1 [1]
1 | CO[C@H]1CC[C@@H](Nc2nc(-c3nccn3C)nn3cc(-c4ccn(C(C)C)n4)c(C)c23)C1 (racemic) [Compound 1, rac 6-(1-Isopropyl-1H-pyrazol-3-yl)-N-((1R,3S)-3-methoxycyclopentyl)-5-methyl-2-(1-methyl-1H-imidazol-2-yl)pyrrolo[2,1-f][1,2,4]triazin-4-amine] | H* (H* ≥ 100% activation) | 
2 | COCC1CCN(c2nc(-c3nccn3C)nn3cc(-c4ccn(C(C)C)n4)c(C)c23)C1 (racemic) [Compound 2, rac 6-(1-Isopropyl-1H-pyrazol-3-yl)-4-(3-(methoxymethyl)pyrrolidin-1-yl)-5-methyl-2-(1-methyl-1H-imidazol-2-yl)pyrrolo[2,1-f][1,2,4]triazine] | H* (H* ≥ 100% activation) | 
3 | COC[C@@H]1CC[C@@H]1CNc1nc(-c2nccn2C)nn2cc(-c3ccn(C(C)C)n3)c(C)c12 (racemic) [Compound 3, rac 6-(1-Isopropyl-1H-pyrazol-3-yl)-N-(((1S,2R)-2-(methoxymethyl)cyclobutyl)methyl)-5-methyl-2-(1-methyl-1H-imidazol-2-yl)pyrrolo[2,1-f][1,2,4]triazin-4-amine] | H* (H* ≥ 100% activation) | 
4 | COC1CCCN(c2nc(-c3nccn3C)nn3cc(-c4ccn(C(C)C)n4)c(C)c23)C1 (racemic) [Compound 4, rac 6-(1-Isopropyl-1H-pyrazol-3-yl)-5-methyl-2-(1-methyl-1H-imidazol-2-yl)-4-(3-(oxo-γ6-methyl)piperidin-1-yl)pyrrolo[2,1-f][1,2,4]triazine] | G* (G* = 75-99% activation) | 
5 | CO[C@H]1CC[C@@H](Nc2nc(-c3nccn3C)nn3cc(-c4ccn(C(C)C)n4)c(-c4ccccc4)c23)C1 (racemic) [Compound 18, rac 6-(1-Isopropyl-1H-pyrazol-3-yl)-N-((1R,3S)-3-methoxycyclopentyl)-2-(1-methyl-1H-imidazol-2-yl)-5-phenylpyrrolo[2,1-f][1,2,4]triazin-4-amine hydrochloride] | H* (H* ≥ 100% activation) | 
6 | COCC1CCN(c2nc(-c3nccn3C)nn3cc(-c4ccn(C(C)C)n4)c(-c4ccccc4)c23)C1.Cl (racemic) [Compound 19, rac 6-(1-Isopropyl-1H-pyrazol-3-yl)-4-(3-(methoxymethyl)pyrrolidin-1-yl)-2-(1-methyl-1H-imidazol-2-yl)-5-phenylpyrrolo[2,1-f][1,2,4]triazine hydrochloride salt] | H* (H* ≥ 100% activation) | 
7 | COC[C@@H]1CC[C@@H]1CNc1nc(-c2nccn2C)nn2cc(-c3ccn(C(C)C)n3)c(-c3ccccc3)c12 (racemic) [Compound 20, rac 6-(1-Isopropyl-1H-pyrazol-3-yl)-N-(((1S,2R)-2-(methoxymethyl)cyclobutyl)methyl)-2-(1-methyl-1H-imidazol-2-yl)-5-phenylpyrrolo[2,1-f][1,2,4]triazin-4-amine] | H* (H* ≥ 100% activation) | 
8 | Cc1c(-c2ccn(C(C)C)n2)cn2nc(-c3nccn3C)nc(Nc3noc(C4CC4)n3)c12 [Compound 75, 5-Cyclopropyl-N-(6-(1-isopropyl-1H-pyrazol-3-yl)-5-methyl-2-(1-methyl-1H-imidazol-2-yl)pyrrolo[2,1-f][1,2,4]triazin-4-yl)-1,2,4-oxadiazol-3-amine] |  | A (A = 1-25% inhibition)
9 | CCc1nc(Nc2nc(-c3nccn3C)nn3cc(-c4ccn(C(C)C)n4)c(C)c23)nn1C [Compound 76, N-(5-Ethyl-1-methyl-1H-1,2,4-triazol-3-yl)-6-(1-isopropyl-1H-pyrazol-3-yl)-5-methyl-2-(1-methyl-1H-imidazol-2-yl)pyrrolo[2,1-f][1,2,4]triazin-4-amine] |  | B (B = 26-45% inhibition)
10 | Cc1c(-c2ccn(C(C)C)n2)cn2nc(-c3nccn3C)nc(Nc3cnn(C(C)C)n3)c12 [Compound 77, 6-(1-Isopropyl-1H-pyrazol-3-yl)-N-(2-isopropyl-2H-1,2,3-triazol-4-yl)-5-methyl-2-(1-methyl-1H-imidazol-2-yl)pyrrolo[2,1-f][1,2,4]triazin-4-amine] |  | C (C = 46-75% inhibition)
11 | Cc1c(-c2ccn(C(C)C)n2)cn2nc(-c3nccn3C)nc(Nc3cn(C(C)C)nn3)c12 [Compound 78, N-(1-Isopropyl-1H-1,2,3-triazol-4-yl)-6-(1-isopropyl-1H-pyrazol-3-yl)-5-methyl-2-(1-methyl-1H-imidazol-2-yl)pyrrolo[2,1-f][1,2,4]triazin-4-amine] |  | A (A = 1-25% inhibition)
12 | COCc1csc(Nc2nc(-c3nccn3C)nn3cc(-c4ccn(C(C)C)n4)c(C)c23)n1 [Compound 79, N-(6-(1-Isopropyl-1H-pyrazol-3-yl)-5-methyl-2-(1-methyl-1H-imidazol-2-yl)pyrrolo[2,1-f][1,2,4]triazin-4-yl)-4-(methoxymethyl)thiazol-2-amine] |  | B* (B* = 26-45% activation)
13 | COc1ncc(Nc2nc(-c3nccn3C)nn3cc(-c4ccn(C(C)C)n4)c(C)c23)cn1 [Compound 80, 6-(1-Isopropyl-1H-pyrazol-3-yl)-N-(2-methoxypyrimidin-5-yl)-5-methyl-2-(1-methyl-1H-imidazol-2-yl)pyrrolo[2,1-f][1,2,4]triazin-4-amine] |  | B* (B* = 26-45% activation)
14 | Cc1c(-c2ccn(C(C)C)n2)cn2nc(-c3nccn3C)nc(Nc3nnc(C4CC4)[nH]3)c12 [Compound 81, N-(5-Cyclopropyl-4H-1,2,4-triazol-3-yl)-6-(1-isopropyl-1H-pyrazol-3-yl)-5-methyl-2-(1-methyl-1H-imidazol-2-yl)pyrrolo[2,1-f][1,2,4]triazin-4-amine] |  | A* (A* = 1-25% activation)
15 | COc1cnc(Nc2nc(-c3nccn3C)nn3cc(-c4ccn(C(C)C)n4)c(C)c23)cn1 [Compound 83, 6-(1-Isopropyl-1H-pyrazol-3-yl)-N-(5-methoxypyrazin-2-yl)-5-methyl-2-(1-methyl-1H-imidazol-2-yl)pyrrolo[2,1-f][1,2,4]triazin-4-amine] |  | B* (B* = 26-45% activation)
16 | Cc1c(-c2ccn(C(C)C)n2)cn2nc(-c3nccn3C)nc(Nc3ccn(C4CC4)n3)c12 [Compound 84, N-(1-Cyclopropyl-1H-pyrazol-3-yl)-6-(1-isopropyl-1H-pyrazol-3-yl)-5-methyl-2-(1-methyl-1H-imidazol-2-yl)pyrrolo[2,1-f][1,2,4]triazin-4-amine] |  | C* (C* = 46-75% activation)
17 | COc1ncccc1Nc1nc(-c2nccn2C)nn2cc(-c3ccn(C(C)C)n3)c(C)c12 [Compound 85, 6-(1-Isopropyl-1H-pyrazol-3-yl)-N-(2-methoxypyridin-3-yl)-5-methyl-2-(1-methyl-1H-imidazol-2-yl)pyrrolo[2,1-f][1,2,4]triazin-4-amine] |  | D (D = 76-100% inhibition)
18 | COc1nccc(Nc2nc(-c3nccn3C)nn3cc(-c4ccn(C(C)C)n4)c(C)c23)n1 [Compound 86, 6-(1-Isopropyl-1H-pyrazol-3-yl)-N-(2-methoxypyrimidin-4-yl)-5-methyl-2-(1-methyl-1H-imidazol-2-yl)pyrrolo[2,1-f][1,2,4]triazin-4-amine] |  | B* (B* = 26-45% activation)
19 | COc1cc(Nc2nc(-c3nccn3C)nn3cc(-c4ccn(C(C)C)n4)c(C)c23)ccn1 [Compound 87, 6-(1-Isopropyl-1H-pyrazol-3-yl)-N-(2-methoxypyridin-4-yl)-5-methyl-2-(1-methyl-1H-imidazol-2-yl)pyrrolo[2,1-f][1,2,4]triazin-4-amine] |  | B* (B* = 26-45% activation)
20 | COc1ncncc1Nc1nc(-c2nccn2C)nn2cc(-c3ccn(C(C)C)n3)c(C)c12 [Compound 88, 6-(1-Isopropyl-1H-pyrazol-3-yl)-N-(4-methoxypyrimidin-5-yl)-5-methyl-2-(1-methyl-1H-imidazol-2-yl)pyrrolo[2,1-f][1,2,4]triazin-4-amine] |  | C* (C* = 46-75% activation)
21 | COc1cccnc1Nc1nc(-c2nccn2C)nn2cc(-c3ccn(C(C)C)n3)c(C)c12 [Compound 89, 6-(1-Isopropyl-1H-pyrazol-3-yl)-N-(3-methoxypyridin-2-yl)-5-methyl-2-(1-methyl-1H-imidazol-2-yl)pyrrolo[2,1-f][1,2,4]triazin-4-amine] |  | C* (C* = 46-75% activation)
22 | Cc1c(-c2ccn(C(C)C)n2)cn2nc(-c3nccn3C)nc(Nc3ncc(C4CC4)o3)c12 [Compound 90, 5-Cyclopropyl-N-(6-(1-isopropyl-1H-pyrazol-3-yl)-5-methyl-2-(1-methyl-1H-imidazol-2-yl)pyrrolo[2,1-f][1,2,4]triazin-4-yl)oxazol-2-amine] |  | C* (C* = 46-75% activation)
23 | Cc1c(-c2ccn(C(C)C)n2)cn2nc(-c3nccn3C)nc(Nc3cc4n(n3)CCO4)c12 [Compound 91, N-(6-(1-Isopropyl-1H-pyrazol-3-yl)-5-methyl-2-(1-methyl-1H-imidazol-2-yl)pyrrolo[2,1-f][1,2,4]triazin-4-yl)-2,3-dihydropyrazolo[5,1-b]oxazol-6-amine] |  | 0 (0 = 0% inhibition)
24 | COCCO[C@H]1C[C@H](Nc2nc(-c3nccn3C)nn3cc(-c4ccn(C(C)C)n4)c(C)c23)C1 [Compound 92, 6-(1-Isopropyl-1H-pyrazol-3-yl)-N-((1r,3r)-3-(2-methoxyethoxy)cyclobutyl)-5-methyl-2-(1-methyl-1H-imidazol-2-yl)pyrrolo[2,1-f][1,2,4]triazin-4-amine] |  | A* (A* = 1-25% activation)
